Assay: Change in cosurfactant content of soft capsules over storage at room temperature (membrane permeation, gas chromatography)
Type: physicochemical
Experimental: The content of the cosurfactant in each soft capsule preparation was analyzed by gas chromatography.
Conditions of gas chromatography for each cosurfactant
Column: Ultra 2 (Crosslinked 2% phenylmethyl silicone gun phase, 25 m
× 0.32 mm, thickness 0.52 μm)
Column temperature: 230° C. (Isothermal)
Detector: FID (Temperature: 270° C.)
Injection temperature: 275° C.
Carrier gas: He (Partition ratio 80:1)
Internal standard: Octyl alcohol
Column: HP20M (Carbowax 20M) (25 m × 0.32 mm, film thickness 0.3
Column temperature: 30° C. (Isothermal)
Detector: FID (Temperature: 200° C.)
Injection temperature: 150° C.
Internal standard: Diethyl ether

Compound	Change of cosurfactant content in soft capsule after 10 days (in words)	Cosurfactant content reduced by, of the initial content, after 10 days (soft capsule) [%]
CO[C@H]1CO[C@H]2[C@@H]1OC[C@H]2OC [dimethylisosorbide]	does not change in its content	
CCO [ethanol]		27.8

Source: US5603951A, “Cyclosporin-containing soft capsule compositions” (Hanmi Pharm. Ind. Co., Ltd., priority 1994, dated 1997)
